Experimental data: paper PMC5913645, “Methyl phenlactonoates are efficient strigolactone analogs with simple structure” (Journal of Experimental Botany, 2017)
Where two headings read alike, the source gives them in different places.

Columns and labels:
S. hermonthica seeds = assay: Striga hermonthica seed germination bioassay; type: in vivo; settings: for EC50: Striga hermonthica, concentrations 10^–5 to 10^–12 M
Method: Parasitic weed seeds’ (S. hermonthica and P. ramosa) germination activity was studied as described previously ([Jamil et al., 2012]). Six pre-conditioned seed discs were placed in a 90 mm Petri dish containing a filter paper ring wetted with 0.9 ml sterile MilliQ water. Then 50 μl of SL analog solution (10^–5–10^–12 M) was applied on each of the six discs, for each concentration. GR24 solutions with equal concentrations and sterile MilliQ water were included as a positive and negative control, respectively. After application, seeds of S. hermonthica and P. ramosa were incubated in dark at 30 °C for 2 d and at 25 °C for 4 d, respectively. Germination (seeds with radicle emerging through the seed coat) was scored under a binocular microscope, and germination rate (%) was calculated. Statistical analyses were carried out using the statistical software package R (version 3.2.2). Dose–response curves and half-maximum effective concentrations (EC50) were calculated to determine optimum amount of MPs. The synthetic strigolactone analog GR24 was used as reference to estimate efficacy of selected compounds. EC50 and estimated response were calculated using the drc package (https://cran.r-project.org/web/packages/drc/) with a four parameter logistic curve (dose–response curve) ([Ritz and Streibig, 2005]).

OsD14 [1] = target: T1, OsD14 (Oryza sativa subsp. japonica, UniProt Q10QA5); assay: Intrinsic tryptophan fluorescence assay, OsD14; type: binding, rice
T1 construct: made in house; host or cells: E. coli BL21 (DE3)
T1 sequence (Q10QA5 1-318): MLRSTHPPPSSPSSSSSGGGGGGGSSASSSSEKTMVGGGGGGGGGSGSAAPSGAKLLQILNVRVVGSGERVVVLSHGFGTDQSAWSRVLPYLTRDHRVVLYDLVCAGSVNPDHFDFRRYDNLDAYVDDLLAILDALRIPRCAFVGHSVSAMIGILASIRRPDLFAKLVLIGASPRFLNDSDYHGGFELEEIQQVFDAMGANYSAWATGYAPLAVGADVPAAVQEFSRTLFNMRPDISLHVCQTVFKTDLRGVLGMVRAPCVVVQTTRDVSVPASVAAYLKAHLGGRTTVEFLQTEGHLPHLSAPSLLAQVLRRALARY
Excerpt: (§1) Striga hermonthica ShHTL7 cDNA was used, GenBank accession KR013127, kindly provided by Tsuyoshi Ota, The University of Tokyo, Japan. Arabidopsis D14 (AtD14) cDNA, GenBank accession AY097402, was synthesized and cloned into pUC57 (GenScript). ShHTL7 and OsD14 cDNAs were amplified by RT-PCR using the primers shown in Supplementary Table S2, digested with BamHI and XhoI, and ligated into BamHI/XhoI-digested pGEX-6P-1 expression vector (GE Healthcare). Integrity of plasmids was confirmed by sequencing (KAUST Bioscience Core Lab). The plasmids were then transformed into E. coli BL21 (DE3) cells. The cells were grown in LB broth containing ampicillin ([…]), incubated at 37 °C until OD600 of 0.6 and induced with 0.1 mM isopropyl-β-D-thiogalactopyranoside at 16 °C for 16 h. Harvested cells were resuspended in lysis buffer: 50 mM Tris–HCl (pH 8.0), 200 mM NaCl, 0.5% Tween-20 and 2 mM dithiothreitol (DTT). After sonication on ice for 10 min, the lysate was centrifuged at 75 000 g for 30 min at 4 °C. Supernatant was allowed to bind to glutathione–sepharose beads (GE Healthcare) for 2 h at 4 °C, washed 3 times with buffer (50 mM Tris-HCl (pH 8.0), 200 mM NaCl, 2 mM DTT), and eluted by cleaving the GST moiety with PreScission™ Protease (GE Healthcare) at 4 °C overnight. Eluted protein was further purified by gel filtration using a HiLoad 16/60 Superdex200 prep grade column (GE Healthcare) on an AKTA prime system (GE Healthcare) in gel filtration buffer (10 mM HEPES pH 7.5, 50 mM KCl and 2 mM DTT). Protein eluted as a sharp single peak and purity was judged by 4–15% SDS-PAGE (Bio-Rad). Purified protein was concentrated using an Amicon 10K filter unit (Merck Millipore) and stored at −80 °C until use. A similar expression and purification protocol was followed for OsD14 protein, except that OsD14 was eluted from glutathione resins using 0.2 mM reduced glutathione (Sigma-Aldrich) without cutting the GST tag.
ShHTL7/D14 tryptophans were excited at 280 nm and emission intensity was measured at 333 nm. ShHTL7/D14 (10 μM) was incubated at various dilutions (0.2, 0.4, 0.8, 1.6, 3.12, 6.25, 12.5, 25, and 50 μM) of GR24 and MPs for 30 min at room temperature before measurement. Each concentration point was measured in triplicate. Emitted fluorescence was monitored using a spectraMaxi3 plate reader (Molecular Devices) in 96-well black plates. Changes in tryptophan fluorescence intensity occur due to conformational changes in protein when it is bound to ligand; differences in fluorescence intensity were recorded and analysed. Data were normalized and dissociation coefficient (Kd) values were calculated by fitting to a binding saturation single-site model with Prism 6 (GraphPad).

OsD14 [2] = target: T1, OsD14; assay: In vitro hydrolysis assay, OsD14; type: biochemical, rice; settings: 10 µM substrate, 50 µg ml^−1 protein, 37 °C, HPLC
Excerpt: as §1
The hydrolysis of GR24 and MPs by ShHTL7/OsD14 was performed in a total volume of 0.5 ml of phosphate-buffered saline containing 10 µM of substrate. Purified ShHTL7/OsD14 was added at a concentration of 50 µg ml^−1 and incubated for the indicated time at 37 °C. After adding 1-indanol (10 µl of a 2.5 mg ml^−1 solution in methanol), as internal standard, solutions were filtered and transferred to HPLC vials. Hydrolysis of substrates was monitored by HPLC analysis using a Zorbax Eclipse Plus C18 column (3.5 µm, 2.1 × 150 mm), eluted by a gradient from 10% to 90% acetonitrile in water within 15 min, keeping the final condition for 4 min. […] Eluted compounds were detected using a diode array detector. Amounts of remaining substrates were determined by calculating corresponding peaks, in comparison with an internal standard.

Arabidopsis seedlings = assay: Arabidopsis primary root length; type: in vivo; settings: 1.0 μM
Method: Sterilized Arabidopsis seeds were sown on half-strength MS (with 0.5% sucrose+1% agar, 0.5 g l^−1 MES, pH 5.7) plates supplemented with GR24 or MPs (at 1.0 μM). Plates were stored at 4 °C in darkness for 3 d and then vertically grown at 22 °C in a Percival incubator under long day condition (16 h at 22 °C/8 h at 16 °C day/night, 60% relative humidity, 60–70 μmol m^−2 s^−1 white light) for 8 d. For determining the effect on lateral root density and primary root length, at least 30 seedlings were measured using ImageJ software after scanning roots.

[3] = 10 μM protein, 30 min, room temperature, read-out: Kd, OsD14

Structure (SMILES)	EC50 (S. hermonthica seeds) [nM]	Kd (OsD14 [1]) [µM]	hydrolysis rate by OsD14 (rank order) (OsD14 [2])	S. hermonthica germination rate (S. hermonthica seeds; 1.0 μM) [%]	Striga germination activity, times weaker than GR24 (S. hermonthica seeds; from EC50 values)	increase in primary root length (Arabidopsis seedlings)	Kd (OsD14 [1]; [3]) [µM]	germination activity, order among the chlorophenyl compounds (S. hermonthica seeds; species not given)
CC1=CC(OC=C2C(=O)OC3c4ccccc4CC23)OC1=O (centres unmarked) [GR24, reference compound]	0.091	4.17 ± 0.32	highest hydrolysis rate with MP1, followed by MP7, GR24, and finally MP3					
COC(=O)/C(=C/OC1C=C(C)C(=O)O1)c1ccc([N+](=O)[O-])cc1 (centres unmarked) [MP1, (E)-methyl 3-(4-methyl-5-oxo-2,5-dihydrofuran-2-yloxy)-2-(4-nitrophenyl)acrylate]	1.5		highest hydrolysis rate with MP1, followed by MP7, GR24, and finally MP3	75	around 17 times	most active compound	3.52 ± 0.35	
COC(=O)/C(=C/OC1C=C(C)C(=O)O1)c1ccccc1 (centres unmarked) [MP3, (E)-methyl 3-(4-methyl-5-oxo-2,5-dihydrofuran-2-yloxy)-2-phenylacrylate]	87		highest hydrolysis rate with MP1, followed by MP7, GR24, and finally MP3			weaker activity than GR24 and MP8	7.46 ± 0.53	
COC(=O)/C(=C/OC1C=C(C)C(=O)O1)c1ccc(Cl)cc1 (centres unmarked) [MP7]			highest hydrolysis rate with MP1, followed by MP7, GR24, and finally MP3			more efficient than GR24	8.74 ± 0.83	highest germination activity with MP7 (Cl in para position) followed by MP9 (ortho position) and MP8 (meta position)
